# Read-outs that look alike come from different tables or passages of the source.
# How the values were obtained:
# [1] = system: HCC1143 human breast cancer cell line; test: Cell growth inhibition assay (methylene blue), HCC1143; assay type: cell-based
# Description: (§1) The following human breast cancer cell lines were obtained from the ATCC. Cells were maintained according to ATCC-recommended culture conditions. AU565 (ATCC Catalog No. ATCC Catalog. No. CRL-2351), BT-20 (ATCC Catalog No. HTB-19), MCF7 (ATCC Catalog No. HTB22), MDA-MB-231 (ATCC Catalog No. HTB-26), MDA-MB-435 (ATCC Catalog No. HTB-129), MDA-MB-468 (ATCC Catalog No. HTB-132), HCC38 (ATCC Catalog No. CRL-2314), HCC70 (ATCC Catalog No. CRL-2315), HCC1143 (ATCC Catalog No. CRL-2321), HCC1428 (ATCC Catalog No. CRL-2327), HCC1500 (ATCC Catalog No. CRL-2329), HCC1806 (ATCC Catalog No. CRL-2335), HCC1954 (ATCC Catalog No. CRL-2338), HCC2218 (ATCC Catalog No. CRL-2343), UACC-812 (ATCC Catalog No. CRL-1897), UACC-893 (ATCC Catalog No. CRL-1902), ZR-75-1 (ATCC Catalog No. CRL-1500), ZR-75-30 (ATCC Catalog No. CRL-1504).
# (§2) Cultured human breast cancer cells were placed in 96-well plates and grown in the continuous presence of test compounds for 4 or 7 days. To expose the cells to test compounds for 7 days, medium was replaced with fresh medium containing compounds after 4 days of exposure and cells were incubated for 3 additional days. Cell growth was assessed using modifications (Amin et al., Cancer Res., 47:6040-6045, 1987; incorporated herein by reference) of a methylene blue-based microculture assay (Finlay et al., Anal. Biochem., 139:272-277, 1984; incorporated herein by reference).
# (§3) To investigate the possible expression of PgP by the cell lines used in this study, the antiproliferative effects of paclitaxel were determined in the presence and absence of verapamil, a known inhibitor of PgP.
# [2] = system: BT-20 human breast cancer cell line; test: Cell growth inhibition assay (methylene blue), BT-20; assay type: cell-based
# Description: as §1, §2, §3
# [3] = system: MCF-7 human breast cancer cell line; test: Cell growth inhibition assay (methylene blue), MCF-7; assay type: cell-based
# Description: as §1, §2, §3
# [4] = system: MDA-MB-435 human breast cancer cell line; test: Cell growth inhibition assay (methylene blue), MDA-MB-435; assay type: cell-based
# Description: as §1, §2, §3
# [5] = system: AU565 human breast cancer cell line; test: Cell growth inhibition assay (methylene blue), AU565; assay type: cell-based
# Description: as §1, §2, §3
# [6] = system: ZR-75-1 human breast cancer cell line; test: Cell growth inhibition assay (methylene blue), ZR-75-1; assay type: cell-based
# Description: as §1, §2, §3
# [7] = system: ZR-75-30 human breast cancer cell line; test: Cell growth inhibition assay (methylene blue), ZR-75-30; assay type: cell-based
# Description: as §1, §2, §3
# [8] = system: HCC1419 human breast cancer cell line; test: Cell growth inhibition assay (methylene blue), HCC1419; assay type: cell-based
# Method: as §2, §3
# [9] = system: cells expressing class II β-tubulin; conditions: Haber et al. J. Biol. Chem. 1995; cited from earlier work
# [10] = system: HCC2218 human breast cancer cell line; test: Cell growth inhibition assay (methylene blue), HCC2218; assay type: cell-based
# Description: as §1, §2, §3
# [11] = system: HCC1500 human breast cancer cell line; test: Cell growth inhibition assay (methylene blue), HCC1500; assay type: cell-based
# Description: as §1, §2, §3
# [12] = system: MDA-MB-468 human breast cancer cell line; test: Cell growth inhibition assay (methylene blue), MDA-MB-468; assay type: cell-based
# Description: as §1, §2, §3
# [13] = system: HCC1428 human breast cancer cell line; test: Cell growth inhibition assay (methylene blue), HCC1428; assay type: cell-based
# Description: as §1, §2, §3
# [14] = system: HCC70 human breast cancer cell line; test: Cell growth inhibition assay (methylene blue), HCC70; assay type: cell-based
# Description: as §1, §2, §3
# [15] = system: HCC38 human breast cancer cell line; test: Cell growth inhibition assay (methylene blue), HCC38; assay type: cell-based
# Description: as §1, §2, §3
# [16] = continuous presence of compound 4 or 7 days, at least three experiments, read-out: Average IC50
# [17] = +10 μM verapamil (PgP blocker), read-out: Paclitaxel IC50 (+10 μM verapamil)
# [18] = no verapamil, read-out: Paclitaxel IC50 (no verapamil)
compound,measurement,setting,value
"CC(=O)O[C@H]1C(=O)[C@@]2(C)[C@H]([C@H](OC(=O)c3ccccc3)[C@]3(O)C[C@H](OC(=O)[C@H](O)[C@@H](NC(=O)c4ccccc4)c4ccccc4)C(C)=C1C3(C)C)[C@]1(OC(C)=O)CO[C@@H]1C[C@@H]2O [Paclitaxel, paclitaxel]",IC50,"[1]; HCC-1143, +10 μM verapamil (PgP blocker), read-out: Paclitaxel IC50 (+10 μM verapamil)",2.9 nM
same,IC50,"[1]; HCC-1143, no verapamil, read-out: Paclitaxel IC50 (no verapamil)",2.8 nM
same,IC50,[1]; [16],2.11 nM
same,IC50,[2]; [17],2.7 nM
same,IC50,[2]; [16],2.63 nM
same,IC50,[2]; [18],3.9 nM
same,IC50,"[3]; MCF7, +10 μM verapamil (PgP blocker), read-out: Paclitaxel IC50 (+10 μM verapamil)",2.7 nM
same,IC50,"[3]; MCF7, continuous presence of compound 4 or 7 days, at least three experiments, read-out: Average IC50",2.31 nM
same,IC50,"[3]; MCF7, no verapamil, read-out: Paclitaxel IC50 (no verapamil)",3.3 nM
same,IC50,[4]; [17],2.7 nM
same,IC50,[4]; [16],2.42 nM
same,IC50,[4]; [18],2.6 nM
same,IC50,"[5]; AU-565, +10 μM verapamil (PgP blocker), read-out: Paclitaxel IC50 (+10 μM verapamil)",4.8 nM
same,IC50,"[5]; AU-565, no verapamil, read-out: Paclitaxel IC50 (no verapamil)",5.4 nM
same,IC50,[5]; [16],2.5 nM
same,IC50,[6]; [17],5.9 nM
same,IC50,[6]; [16],3.35 nM
same,IC50,[6]; [18],5.3 nM
same,IC50,[7]; [17],4.1 nM
same,IC50,[7]; [16],4.06 nM
same,IC50,[7]; [18],3.9 nM
same,IC50,"[8]; HCC-1419, +10 μM verapamil (PgP blocker), read-out: Paclitaxel IC50 (+10 μM verapamil)",7 nM
same,IC50,"[8]; HCC-1419, no verapamil, read-out: Paclitaxel IC50 (no verapamil)",5.2 nM
same,IC50,[8]; [16],5.41 nM
same,effectiveness in treating cells expressing class II β-tubulin,[9],not be effective
same,IC50,"[10]; HC-2218, continuous presence of compound 4 or 7 days, at least three experiments, read-out: Average IC50",6.72 nM
same,IC50,"[10]; HCC-2218, +10 μM verapamil (PgP blocker), read-out: Paclitaxel IC50 (+10 μM verapamil)",5 nM
same,IC50,"[10]; HCC-2218, no verapamil, read-out: Paclitaxel IC50 (no verapamil)",5.6 nM
same,IC50,"[11]; HCC-1500, +10 μM verapamil (PgP blocker), read-out: Paclitaxel IC50 (+10 μM verapamil)",3.2 nM
same,IC50,"[11]; HCC-1500, no verapamil, read-out: Paclitaxel IC50 (no verapamil)",4.6 nM
same,IC50,[11]; [16],2.48 nM
same,IC50,[12]; [17],5.4 nM
same,IC50,[12]; [16],4.3 nM
same,IC50,[12]; [18],5.1 nM
same,IC50,"[13]; HCC-1428, +10 μM verapamil (PgP blocker), read-out: Paclitaxel IC50 (+10 μM verapamil)",9.5 nM
same,IC50,"[13]; HCC-1428, no verapamil, read-out: Paclitaxel IC50 (no verapamil)",9 nM
same,IC50,[13]; [16],5.03 nM
same,IC50,"[14]; HCC-70, +10 μM verapamil (PgP blocker), read-out: Paclitaxel IC50 (+10 μM verapamil)",1.9 nM
same,IC50,"[14]; HCC-70, no verapamil, read-out: Paclitaxel IC50 (no verapamil)",2 nM
same,IC50,[14]; [16],2.25 nM
same,IC50,"[15]; HCC-38, +10 μM verapamil (PgP blocker), read-out: Paclitaxel IC50 (+10 μM verapamil)",6.2 nM
same,IC50,"[15]; HCC-38, no verapamil, read-out: Paclitaxel IC50 (no verapamil)",5.9 nM
same,IC50,[15]; [16],2.94 nM

# Reference: patent US20060148014A1, “Tubulin isotype screening in cancer therapy using hemiasterlin analogs” (priority 2004, published 2006)
